Consider one substance from patent US20260218197A1, “EXTRACELLULAR VESICLE SECRETION REDUCING AGENT FOR REDUCING EXTRACELLULAR VESICLE SECRETION, AND USE OF THE SAME” (THEORIA SCIENCE INC., priority 2020, published 2026).

Data set [1] relates to colorectal cancer cells HCT116. Nature of the data set: Amount of secreted EVs by the ExoScreen method. It is filed as cell-based, human. To be noted: HCT116 transformants, CMs and EV fractions, compared with transformants (NC). How it is done: (§1) EV detection was performed using an AlphaLISA reagent (Perkin Elmer) composed of AlphaScreen streptavidin-coated donor beads (6760002), AlphaLISA unconjugated acceptor beads (6062011), and an AlphaLISA universal buffer (AL001F), a 96-well half-area white plate (6005560, Perkin Elmer), and a detection device EnSpire Alpha 2300 Mutilabel plate reader (Perkin Elmer). Specifically, the EV detection was performed as follows. Each well of the plate was filled with 5 μL of EVs or 10 μL of CM (cell culture supernatant), 10 μL of a 5 nmol/L biotinylated antibody solution prepared using the above-described buffer, and 10 μL of 50 µg/mL AlphaLISA acceptor bead-conjugated antibody. […] Next, luminescence in the wells of the plate was measured using the detection device with the excitation wavelength set to 680 nm and the emission detection wavelength set to 615 nm. […]
(§2) In a 6-well plate, 2 mL of the cancer cell suspension was seeded at 1.0×10^5 cells/well and incubated for 24 hours. […] 48 hours after the replacement, total RNA was extracted, and the expression of the gene of interest was measured by qPCR.
(§3) Colorectal cancer cells HCT116 and lung cancer cells A549 were each transfected with miR-891b. […] Then, according to the ExoScreen method described above, the amounts of the secreted EVs were measured by measuring the signal intensities. […]

In data set [2] the test system is lung cancer cells A549. Nature of the data set: Amount of secreted EVs by the ExoScreen method. It is filed as cell-based, human. To be noted: A549 transformants, CMs and EV fractions, compared with transformants (NC). How it is done:
as §1, §2, §3

Another data set has as its system PSAT1. In words: PSAT1 gene (qPCR) and protein (Western blotting) expression in transformants. The data set is classed as cell-based, human. To be noted: HCT116 and A549 transformants. How it is done: In a 6-well plate, 2 mL of the cancer cell suspension was seeded at 1.0×10^5 cells/well and incubated for 24 hours. Thereafter, 10 nmol/L of the intended nucleic acid molecules were added thereto, and the cells were transfected with the nucleic acid molecules using a transfection reagent (product name: DharmaFECT Transfection Reagent 1). The nucleic acid molecules used were the above-described miRNA and the above-described siRNA. After the incubation for 24 hours, the medium was replaced with the above-described advanced RPMI 1640 medium or advanced DMEM medium containing the antibiotic-antimycotic agent and 2 mmol/L-glutamine (Gibco). 48 hours after the replacement, total RNA was extracted, and the expression of the gene of interest was measured by qPCR. […]
First, expression of the PSAT1 gene was detected in the above-described transformants (miR-891b) and the control transformants (NC) therefor. Then, assuming that the expression levels in the transformants (NC) were 1, the relative values of the expression levels in the respective transformants (miR-891b) were determined. […] Also, for the transformants (miR-891b) and the control transformants (NC), the PSAT1 protein expression was detected by Western blotting. As a control, β-actin was also detected. […]

Data set [3] deals with 3′ UTR of the human PSAT1 mRNA. In words: Dual-Luciferase reporter assay with PSAT1 3′ UTR in HEK293 cells. It is filed as cell-based. To be noted: 48 hours after transfection. The procedure: Thus, the effect of miR-891b was examined using the wild-type PSAT1 gene in which the above-described 7-base region in the 3′ UTR is the wild-type sequence (SEQ ID NO: 3: AAGTTGC) and a mutant-type PSAT1 gene in which the above-described 7-base region in the 3′ UTR is a mutated sequence (SEQ ID NO: 4: TTCAACG). Specifically, the following experiment was performed. The wild-type PSAT1 gene or the mutant-type PSAT1 gene was subcloned into a plasmid vector psiCHECK2, and human embryonic kidney cells (HEK293 cells) were transfected with this recombinant vector together with miR-891b or the negative control miRNA using Lipofectamine 3000. 48 hours after the transfection, the luciferase activity of the transformants was quantified using a plate reader according to the operating procedure of a Dual-Luciferase Reporter Assay System.
The results obtained are shown in (D) of FIG. 3.
Background: Reporter assays use an easily measured gene product as a stand-in for the process of interest.

Data set [4] has as its system colorectal cancer cells HCT116. Nature of the data set: CD63 immunofluorescence / coimmunostaining (intracellular EV accumulation). To be noted: HCT116 transformants. It is filed as cell-based, human. The procedure: (§4) Colorectal cancer cells HCT116 and lung cancer cells A549 were transfected with siRNA (siPSAT1) in the same manner as in the item (2) in Example A1, and EV biogenesis after PSAT1 silencing was examined. For the respective silenced transformants, CD63 and PSAT1 were examined by immunofluorescence.
(§5) Further, coimmunostaining of the EV marker CD63 and also an early endosome marker EEA1 or a late endosome marker Rab7 was conducted for the PSAT1-silenced transformants. As a result, no overlap was observed between EEA1 and CD63 in either the PSAT1-silenced transformants or the negative control transformants. […] On this account, the CD63 single-positive area was measured based on the intensity. […] This confirmed that EVs had accumulated in the cells.
(§6) Specifically, the test was performed in the following manner. Colorectal cancer cells HCT116 and lung cancer cells A549 were each seeded in a 6-well plate at 1.5×10^5 cells/well (Day 0), and incubated for 24 hours in a medium (DMEM with 10% FBS, 1×anti-anti medium). After the incubation (Day 1), the above-described medium was removed, and thereafter, a serine-deficient medium and an inhibitor solution were added to the wells. The inhibitor solution was prepared by dissolving NCT-503 in DMSO, and the concentration of the inhibitor per well was set to 2.5 μmol/L. Then, after another 48 hours of incubation (Day 3), the medium in the wells was collected and the cells in the wells were counted. As negative controls (NC), the test was performed in the same manner, except that DMSO was added instead of the inhibitor solution.
(§7) EVs accumulated in the cells were analyzed in the following manner. Specifically, the collected cells were immunostained, the CD63 single-positive area was measured based on the fluorescence intensity, and the fluorescence intensity measured in the area was divided by the number of nuclei to determine the amount of EVs accumulated in each cell. On the other hand, secreted EVs were collected from the collected medium and then subjected to the NTA. In the NTA, the amount of secreted EVs was determined as a relative value calculated assuming that the amount of the secreted EVs in the negative control was 1.

Data set [5] concerns lung cancer cells A549. The description is as above. To be noted: A549 transformants. It is filed as cell-based, human. How it is done:
as §4, §5, §6, §7

For “miR-891b: nucleic acid molecule miRNA, SEQ ID NO: 1: GCAACUUACCUGAGUCAUUGA (Product No. 4464066, Ambion) (listed as RNA, chemistry not given here)”, the “relative value of the amount of secreted EVs (ExoScreen method)” value (in data set [1]; in the data set with lung cancer cells A549 [2]) was “significantly lower” each time. Also, the PSAT1 protein expression result with PSAT1 (Western blotting, vs transformants (NC)) is on record as “reduced”. In addition, the PSAT1 gene expression entry in the data set on PSAT1 (relative to transformants (NC)) is “reduced”. Besides, the results for the “PSAT1 expression level (relative luciferase activity)” value in data set [3] (mutated sequence in miR-891b recognition region) and in data set [3] (wild-type PSAT1 3′ UTR sequence) were “did not reduce” and “significantly reduced”, respectively. Moreover, the “CD63 (EV marker) in cytoplasm by immunofluorescence” value (in data set [4]; in the data set on lung cancer cells A549 [5]) was “accumulation of CD63” in each case.
